A short description of data set [1]: DMBA carcinogen treatment, survival and tumor development. The conditions noted are these: treated at day 7. It counts as in vivo, mouse. As for the experimental part: Littermate controls were analyzed for tumor-free survival. Animals were genotyped by PCR and allowed to age undisturbed in a maximum of 5 mice per cage with standard chow and water ad libitum in a standard light-day cycle. Mice were monitored three times a week and were sacrificed when moribund or if external tumors exceeded 2 cm in diameter and scored as a death in survival analysis. Those animals with cancer, as determined by histological analysis, were scored as an event in the tumor-free survival Kaplan-Meier analysis. For lung tumors, analysis of tumor load was carried out as done previously (Zhang et al., 2001).
Seven-day old pups were treated with 5% 7,12-dimethylbenz-alpha-anthracene (DMBA) in acetone by pipetting 50 μl onto the back, and allowing it to air-dry. Mice were monitored three times a week for signs of morbidity and underwent full autopsies for tumor detection.

Data set [2] has as its system thymocytes. Kind of data set: Thymocyte apoptosis / cell viability (propidium iodide, flow cytometry). It counts as cell-based, mouse. The conditions noted are these: 1 μM, 18 hrs. As for the experimental part: For analysis of thymocytes, fresh thymus was passed through a cell strainer (Becton Dickinson) in order to produce single cell suspensions for analysis and resuspended in RPMI-1640 media containing 10% fetal calf serum. For thymocyte proliferation assays, cells were seeded in 96-well plates at 1×10^5 cells per well and subjected to the following conditions: no mitogen, PMA (1 ng/ml)+ionomycin (50 ng/ml), and 3 μg/ml anti-CD3e (eBioscience)+100 U IL-2. Cells were grown for 48 hours, pulsed with 1 μCi [3H]-thymidine (Amersham) for the last 16 hours. Incorporated [3H]-thymidine was measured using the 1450 MicroBeta Trilux Scintillation and Luminescence Counter. For analysis of apoptosis, thymocytes were plated in 12-well plates (1×10^6 cells per well) and treated with 5 Gy gamma-irradiation or 1 μM dexamethasone for 18 hours. Cell viability was determined by staining the cells with propidium iodide and performing flow cytometric analysis.
For orientation: In flow cytometry, cells or beads pass a laser one at a time.

The test system of data set [3] is lung ECs. The experiment in a line: MTT viability assay, lung endothelial cells. It counts as cell-based, mouse. How it is done:
(§1) 100 ng/ml FGF, or 10% FBS.
In general terms: Tetrazolium dyes change colour on reduction, which living cells bring about.

Data set [4] deals with liver ECs. The experiment in a line: MTT viability assay, liver endothelial cells. It counts as cell-based, mouse. How it is done: as §1
The subject of data set [5] is liver ECs.
Procedure: Livers of Mx-Cre^+ or Mx-Cre^− mice injected with pI-pC 3 weeks prior were used for the isolation of liver ECs. Liver tissues were homogenized and digested in collagenase D and lysates were run through a cell strainer. ECs were enriched by taking the interphase of a 30% Histodenz (Sigma) and RPMI suspension of cells overlaid after spinning at 1500×g for 20 min. Cells were further affinity isolated by CD31-M450 prebound magnetic beads. […] VEGF and basic FGF were obtained from the Biological Resources Branch, NCI Preclinical Repository. Cells were grown in DMEM+0.5% BSA supplemented with 100 ng/ml VEGF. 100 ng/ml FGF, or 10% FBS. EC proliferation and apoptosis were measured with the BrdU labelling and detection kit (Roche) and the In situ cell death detection kit (Roche), respectively per the manufacturer's instruction. Viability of cells after various treatments was measured by MTT (2,3-bis-(2-methoxy-4-nitro-5-sulfophenyl)-2H-tetrazolium-5-carboxanilide) assays in 96 well plates. […] Vector (pLKO) alone and pLKO-GFP were used as controls to exclude non-specific responses. Cells were selected for 96 hrs with puromycin (1 μg/ml) and used for further assays.
Data set [6] deals with VEGF. The conditions noted are these: intravitreal, proliferative diabetic retinopathy, short term therapy; cited from earlier work.
Chain of VEGF (P15692 207-311 limits assumed): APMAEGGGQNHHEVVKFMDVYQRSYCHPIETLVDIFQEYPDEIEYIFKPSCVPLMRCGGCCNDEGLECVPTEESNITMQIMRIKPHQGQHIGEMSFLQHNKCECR

Where two headings read alike, the source gives them in different places.

With `Cc1c2ccccc2c(C)c2c1ccc1ccccc12` [DMBA, 7,12-dimethylbenz-alpha-anthracene], the median survival in data set [1] (FoxO4+/+ mice) was 27.3 weeks; in data set [1] (FoxO4-/- mice) it was 23.4 weeks.

With `C[C@@H]1C[C@H]2[C@@H]3CCC4=CC(=O)C=C[C@]4(C)[C@@]3(F)[C@@H](O)C[C@]2(C)[C@@]1(O)C(=O)CO` [dexamethasome, dexamethasone], the survival amounted to 69.3±0.7 % survival in data set [2] (Mx-Cre+ thymocytes) and 50.6±2.6 % survival in data set [2] (Mx-Cre- thymocytes).

Regarding “TGF-β1: cytokine known to induce EC cytostasis through Smad signalling”, the sensitivity to stimulation entry in data set [3] (lung ECs irrespective of FoxO status) was “insensitive”. The survival upon exposure in data set [4] (Mx-Cre- liver ECs (reduced survival)) was around 60%; in data set [4] (liver ECs, much less sensitive), around 90%.

Take VEGF: the increase in viability stood at 47.2% in data set [3] (Mx-Cre+ lung ECs) and 41.7% in data set [3] (Mx-Cre- lung ECs). The “increase in viability (proliferation upon stimulation)” value was 73.3% in data set [4] (Mx-Cre+ liver ECs) and 17.9% in data set [4] (Mx-Cre- liver ECs). In addition, the “tube length (VEGF-induced tube formation)” value is 4123±318 μm in data set [5] (Mx-Cre+ liver ECs) and 3229±285 μm in data set [5] (Mx-Cre- liver ECs).

“bevacizumab: humanized anti-VEGF-A monoclonal antibody”: the angiographic leaking result in data set [6] is given as “complete resolution of angiographic leaking”.

(Values after patent publication US9632090B2, “Compositions and methods for the identification, assessment, prevention and therapy of thymic lymphoma or hamartomatous tumours” (Dana-Farber Cancer Institute, Inc., priority 2007, dated 2017).)
